This is an account of results in ChEMBL document CHEMBL5291721, “A preclinical secondary pharmacology resource illuminates target-adverse drug reaction associations of marketed drugs” (Nat Commun, 2023).

Experiment [1] has as its target Vascular endothelial growth factor receptor 2 (Homo sapiens, UniProt P35968). The class given is functional.
The next experiment deals with T1, Progesterone receptor (Homo sapiens, UniProt P06401).
T1 sequence (P06401 whole entry): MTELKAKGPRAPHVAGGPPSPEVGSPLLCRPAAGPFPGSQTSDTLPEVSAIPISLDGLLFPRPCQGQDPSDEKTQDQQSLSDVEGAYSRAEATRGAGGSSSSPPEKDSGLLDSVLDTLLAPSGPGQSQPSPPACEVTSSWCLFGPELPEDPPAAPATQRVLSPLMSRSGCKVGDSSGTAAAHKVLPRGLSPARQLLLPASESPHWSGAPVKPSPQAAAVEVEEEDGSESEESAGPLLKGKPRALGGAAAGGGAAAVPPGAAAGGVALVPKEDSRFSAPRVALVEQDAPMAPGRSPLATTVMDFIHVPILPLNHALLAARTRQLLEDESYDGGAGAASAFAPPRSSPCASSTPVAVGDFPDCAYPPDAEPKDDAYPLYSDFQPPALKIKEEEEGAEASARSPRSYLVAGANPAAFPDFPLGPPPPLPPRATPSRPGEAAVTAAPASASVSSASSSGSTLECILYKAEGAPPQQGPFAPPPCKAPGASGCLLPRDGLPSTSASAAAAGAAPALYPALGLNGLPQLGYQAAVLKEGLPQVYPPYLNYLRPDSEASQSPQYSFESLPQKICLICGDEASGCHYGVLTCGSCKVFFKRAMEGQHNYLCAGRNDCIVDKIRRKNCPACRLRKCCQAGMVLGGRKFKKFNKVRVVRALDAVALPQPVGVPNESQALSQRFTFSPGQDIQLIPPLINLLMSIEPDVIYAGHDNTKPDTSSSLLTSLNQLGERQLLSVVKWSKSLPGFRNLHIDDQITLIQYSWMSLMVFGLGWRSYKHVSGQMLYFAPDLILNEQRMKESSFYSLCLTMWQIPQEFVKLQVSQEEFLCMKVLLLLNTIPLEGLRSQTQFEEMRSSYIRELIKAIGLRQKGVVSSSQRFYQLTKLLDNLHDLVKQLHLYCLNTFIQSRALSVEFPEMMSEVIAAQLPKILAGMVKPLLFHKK

A further experiment concerns the target Histamine H3 receptor (Homo sapiens, UniProt Q9Y5N1).
Experiment [2] concerns the target Beta-1 adrenergic receptor (Homo sapiens, UniProt P08588). The class given is functional.
For experiment [3], the target named is T2, 5-hydroxytryptamine receptor 2C (Homo sapiens, UniProt P28335).
T2 sequence (P28335 whole entry): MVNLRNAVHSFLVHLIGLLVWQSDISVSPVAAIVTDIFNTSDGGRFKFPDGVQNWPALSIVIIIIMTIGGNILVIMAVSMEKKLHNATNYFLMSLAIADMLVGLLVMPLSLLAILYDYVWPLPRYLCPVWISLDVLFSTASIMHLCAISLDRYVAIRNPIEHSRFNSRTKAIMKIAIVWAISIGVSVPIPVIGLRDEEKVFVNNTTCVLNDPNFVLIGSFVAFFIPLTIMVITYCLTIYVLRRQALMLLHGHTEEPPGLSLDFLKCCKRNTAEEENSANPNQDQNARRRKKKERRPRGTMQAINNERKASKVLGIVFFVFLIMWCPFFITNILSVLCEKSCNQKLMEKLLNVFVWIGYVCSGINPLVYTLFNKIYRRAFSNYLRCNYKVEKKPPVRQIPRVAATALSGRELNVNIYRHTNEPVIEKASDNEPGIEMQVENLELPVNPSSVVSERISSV

In another experiment the target is D(1A) dopamine receptor (Homo sapiens, UniProt P21728). The class given is functional, cell-based.
The next experiment concerns the target T3, Adenosine receptor A3 (Homo sapiens, UniProt P0DMS8).
T3 sequence (P0DMS8 whole entry): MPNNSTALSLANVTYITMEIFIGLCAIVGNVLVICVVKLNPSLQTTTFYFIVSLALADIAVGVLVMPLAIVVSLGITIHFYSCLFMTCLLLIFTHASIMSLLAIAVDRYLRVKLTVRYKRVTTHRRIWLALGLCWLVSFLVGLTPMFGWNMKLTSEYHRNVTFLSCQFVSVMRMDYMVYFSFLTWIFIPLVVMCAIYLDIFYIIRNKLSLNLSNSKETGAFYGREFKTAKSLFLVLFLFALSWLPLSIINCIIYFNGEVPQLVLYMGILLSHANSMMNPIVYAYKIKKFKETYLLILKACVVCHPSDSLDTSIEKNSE

Experiment [4] addresses T4, Muscarinic acetylcholine receptor M2 (Homo sapiens, UniProt P08172).
T4 sequence (P08172 whole entry): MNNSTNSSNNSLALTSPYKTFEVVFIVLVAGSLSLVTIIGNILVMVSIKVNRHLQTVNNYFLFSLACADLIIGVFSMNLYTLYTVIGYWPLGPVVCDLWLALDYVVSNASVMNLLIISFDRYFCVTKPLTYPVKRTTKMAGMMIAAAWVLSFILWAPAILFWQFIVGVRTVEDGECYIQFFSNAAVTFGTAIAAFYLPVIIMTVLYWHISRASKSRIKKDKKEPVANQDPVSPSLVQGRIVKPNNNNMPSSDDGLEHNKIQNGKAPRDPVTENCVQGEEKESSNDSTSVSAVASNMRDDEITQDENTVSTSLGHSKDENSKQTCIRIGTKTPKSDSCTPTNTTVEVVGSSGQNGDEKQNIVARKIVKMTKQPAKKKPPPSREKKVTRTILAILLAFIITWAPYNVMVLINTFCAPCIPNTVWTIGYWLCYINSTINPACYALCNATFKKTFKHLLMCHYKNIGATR
Type of experiment: functional, cell-based.

For experiment [5], the target named is T4, Muscarinic acetylcholine receptor M2. Type of experiment: functional, cell-based. The source holds these as a separate data set.
The target of experiment [6] is T5, Muscarinic acetylcholine receptor M1 (Homo sapiens, UniProt P11229).
T5 sequence (P11229 whole entry): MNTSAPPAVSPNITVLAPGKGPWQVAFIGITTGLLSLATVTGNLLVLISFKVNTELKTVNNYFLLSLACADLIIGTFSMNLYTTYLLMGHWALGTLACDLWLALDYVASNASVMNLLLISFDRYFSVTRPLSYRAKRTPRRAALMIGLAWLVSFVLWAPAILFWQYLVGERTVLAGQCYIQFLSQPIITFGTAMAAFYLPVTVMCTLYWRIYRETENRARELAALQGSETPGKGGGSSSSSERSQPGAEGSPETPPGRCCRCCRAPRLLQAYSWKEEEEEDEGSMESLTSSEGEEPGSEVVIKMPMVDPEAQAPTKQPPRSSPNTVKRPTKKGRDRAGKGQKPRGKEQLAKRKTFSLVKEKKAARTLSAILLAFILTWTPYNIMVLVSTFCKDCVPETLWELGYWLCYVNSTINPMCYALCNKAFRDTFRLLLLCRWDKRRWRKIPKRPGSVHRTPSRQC
Type of experiment: functional.

In general, AC50 refers to the concentration at which the activity in the assay is half-maximal. A higher AC50 goes with weaker potency.

Structures are written as SMILES. A value given as a limit tells only on which side of the number the result lay.
Note: assay procedure not described here.

Beta-1 adrenergic receptor, sequence (P08588 whole entry): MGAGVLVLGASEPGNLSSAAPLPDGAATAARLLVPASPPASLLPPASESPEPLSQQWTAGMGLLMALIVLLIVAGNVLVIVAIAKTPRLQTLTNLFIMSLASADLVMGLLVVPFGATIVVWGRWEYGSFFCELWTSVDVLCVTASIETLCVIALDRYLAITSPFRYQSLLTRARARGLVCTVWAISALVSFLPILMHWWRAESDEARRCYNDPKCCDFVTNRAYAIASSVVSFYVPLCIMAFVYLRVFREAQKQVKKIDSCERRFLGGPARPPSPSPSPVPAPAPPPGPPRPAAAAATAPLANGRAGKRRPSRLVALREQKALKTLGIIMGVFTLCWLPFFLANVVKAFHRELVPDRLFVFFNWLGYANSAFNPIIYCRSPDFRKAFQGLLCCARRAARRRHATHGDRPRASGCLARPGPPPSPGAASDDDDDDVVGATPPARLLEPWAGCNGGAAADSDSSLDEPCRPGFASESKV
Vascular endothelial growth factor receptor 2, sequence (P35968 whole entry): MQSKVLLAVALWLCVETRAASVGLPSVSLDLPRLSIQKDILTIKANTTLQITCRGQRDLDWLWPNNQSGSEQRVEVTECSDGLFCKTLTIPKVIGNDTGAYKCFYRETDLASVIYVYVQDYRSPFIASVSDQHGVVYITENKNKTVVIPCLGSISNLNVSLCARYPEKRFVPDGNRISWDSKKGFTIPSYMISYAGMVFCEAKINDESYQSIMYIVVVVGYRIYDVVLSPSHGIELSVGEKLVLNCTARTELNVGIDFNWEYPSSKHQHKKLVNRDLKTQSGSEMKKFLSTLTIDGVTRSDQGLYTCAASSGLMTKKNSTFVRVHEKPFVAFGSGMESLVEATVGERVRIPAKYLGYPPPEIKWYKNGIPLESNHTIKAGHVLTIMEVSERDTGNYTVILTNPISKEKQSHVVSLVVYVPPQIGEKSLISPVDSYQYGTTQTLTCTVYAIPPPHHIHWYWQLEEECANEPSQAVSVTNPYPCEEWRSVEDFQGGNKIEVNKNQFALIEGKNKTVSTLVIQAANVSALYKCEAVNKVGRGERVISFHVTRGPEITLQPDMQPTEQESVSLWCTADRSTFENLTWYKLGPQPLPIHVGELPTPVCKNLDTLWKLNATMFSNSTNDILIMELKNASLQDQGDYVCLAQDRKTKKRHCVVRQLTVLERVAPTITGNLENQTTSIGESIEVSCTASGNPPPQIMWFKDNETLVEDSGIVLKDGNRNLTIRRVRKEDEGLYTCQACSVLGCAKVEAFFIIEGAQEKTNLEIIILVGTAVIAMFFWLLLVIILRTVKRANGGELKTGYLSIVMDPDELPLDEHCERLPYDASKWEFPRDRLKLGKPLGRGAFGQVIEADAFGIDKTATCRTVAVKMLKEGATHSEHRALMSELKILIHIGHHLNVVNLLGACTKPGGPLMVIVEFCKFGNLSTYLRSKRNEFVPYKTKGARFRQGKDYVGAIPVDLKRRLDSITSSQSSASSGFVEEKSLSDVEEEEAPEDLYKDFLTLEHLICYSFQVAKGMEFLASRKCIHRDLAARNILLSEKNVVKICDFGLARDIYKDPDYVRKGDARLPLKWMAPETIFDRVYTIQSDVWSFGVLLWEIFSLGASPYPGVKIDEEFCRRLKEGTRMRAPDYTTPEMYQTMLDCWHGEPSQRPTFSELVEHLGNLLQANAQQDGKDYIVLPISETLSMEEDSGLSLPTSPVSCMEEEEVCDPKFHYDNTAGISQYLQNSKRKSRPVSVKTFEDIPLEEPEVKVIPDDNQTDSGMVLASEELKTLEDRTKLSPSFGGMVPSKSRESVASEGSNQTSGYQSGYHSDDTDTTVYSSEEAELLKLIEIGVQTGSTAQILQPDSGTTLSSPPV
D(1A) dopamine receptor, sequence (P21728 whole entry): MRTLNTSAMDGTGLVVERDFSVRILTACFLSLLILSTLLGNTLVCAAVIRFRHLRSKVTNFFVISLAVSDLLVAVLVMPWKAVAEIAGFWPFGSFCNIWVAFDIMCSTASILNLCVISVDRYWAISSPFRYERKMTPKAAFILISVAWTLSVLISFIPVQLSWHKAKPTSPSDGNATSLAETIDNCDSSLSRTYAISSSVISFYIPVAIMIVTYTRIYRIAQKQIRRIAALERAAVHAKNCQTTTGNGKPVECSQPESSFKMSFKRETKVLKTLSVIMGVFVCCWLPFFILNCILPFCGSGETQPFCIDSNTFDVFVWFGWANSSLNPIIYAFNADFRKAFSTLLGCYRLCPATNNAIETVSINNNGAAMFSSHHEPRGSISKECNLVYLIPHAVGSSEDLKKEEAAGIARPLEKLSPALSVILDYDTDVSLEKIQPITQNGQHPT
Histamine H3 receptor, sequence (Q9Y5N1 whole entry): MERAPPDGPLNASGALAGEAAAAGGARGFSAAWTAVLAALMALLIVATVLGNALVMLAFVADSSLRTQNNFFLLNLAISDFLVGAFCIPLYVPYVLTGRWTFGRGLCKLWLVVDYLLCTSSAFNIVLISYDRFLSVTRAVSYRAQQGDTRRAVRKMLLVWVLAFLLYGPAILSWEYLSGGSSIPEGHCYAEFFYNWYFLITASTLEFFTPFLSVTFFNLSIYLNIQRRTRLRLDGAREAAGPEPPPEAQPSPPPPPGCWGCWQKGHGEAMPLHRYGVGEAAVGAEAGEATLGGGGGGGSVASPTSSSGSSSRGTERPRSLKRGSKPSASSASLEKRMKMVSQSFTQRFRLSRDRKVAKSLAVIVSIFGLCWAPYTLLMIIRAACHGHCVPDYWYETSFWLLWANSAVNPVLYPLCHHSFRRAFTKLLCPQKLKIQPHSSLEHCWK

As for `COc1nccnc1NS(=O)(=O)c1ccc(N)cc1`, in experiment [1], the AC50 was greater than 30 µM.

As to `NC(=O)c1nc(F)c[nH]c1=O`, the AC50 (on Progesterone receptor; in experiment [1]) was greater than 30 µM each time.

As for `CN(C)CCCN1C(=O)c2cc([N+](=O)[O-])ccc2Oc2ccccc21`, the AC50 (at Progesterone receptor; in experiment [1]) was greater than 30 µM throughout.

Take `O=S(=O)(O)CCS` [2-MERCAPTOETHANESULFONIC ACID]: the half-maximal activity concentration (AC50) (on Progesterone receptor; in [1]) was greater than 30 µM throughout.

For `O=C(O)COc1nn(Cc2ccccc2)c2ccccc12` [BENDAZAC], the AC50 (at Progesterone receptor; in [1]) was greater than 30 µM in each case.

With `Cc1ccc([C@@H]2O[C@H](CO)[C@@H](O)[C@H](O)[C@H]2O)cc1Cc1ccc(-c2ccc(F)cc2)s1` [CANAGLIFLOZIN ANHYDROUS], the AC50 (at Progesterone receptor; in [1]) was greater than 30 µM throughout.

`O=C(O)CCCc1ccc(N(CCCl)CCCl)cc1` [CHLORAMBUCIL]: the AC50 (at Progesterone receptor; in experiment [1]) was greater than 30 µM each time.

On to `CN(C)CCN(Cc1ccc(Cl)cc1)c1ccccn1` [CHLOROPYRAMINE], for which the AC50 (at Progesterone receptor; in [1]) was greater than 30 µM throughout.

As to `O=C(O)c1cc(=O)c2ccccc2o1` [CHROMOCARB], the AC50 (on Progesterone receptor; in [1]) was greater than 30 µM in each case.

As for `CN(CC(=O)O)C(=N)N` [CREATINE], the AC50 (on Progesterone receptor; in experiment [1]) was greater than 30 µM throughout.

In the case of `C#Cc1cccc(Nc2ncnc3cc(OCCOC)c(OCCOC)cc23)c1` [ERLOTINIB], the concentration at half-maximal activity (AC50) on Histamine H3 receptor is greater than 30 µM; in [2], greater than 30 µM; in [3], greater than 30 µM; on D(1A) dopamine receptor it was greater than 30 µM; at Adenosine receptor A3, 25 µM; on Progesterone receptor, greater than 30 µM. Besides, the AC50 in experiment [4], in [5] and in experiment [6] was greater than 30 µM in each case.

As to `C[C@]12CC[C@@H]3c4ccc(O)cc4CC[C@H]3[C@@H]1CC[C@@H]2OC(=O)CCC1CCCC1` [ESTRADIOL CYPIONATE], the figures for the AC50 (at Progesterone receptor; in [1]) were 1.65 µM and greater than 30 µM, respectively.

Take `CCC(=O)O[C@@H](O[P@](=O)(CCCCc1ccccc1)CC(=O)N1C[C@H](C2CCCCC2)C[C@H]1C(=O)O)C(C)C` [FOSINOPRIL]: the AC50 (in experiment [3]; on D(1A) dopamine receptor; at Progesterone receptor; in [4]; in [5]; in experiment [6]) was greater than 30 µM in each case.

Consider `CC1(C)O[C@@H]2C[C@H]3[C@@H]4CCC5=CC(=O)CC[C@]5(C)[C@@]4(F)[C@@H](O)C[C@]3(C)[C@]2(C(=O)CCl)O1` [HALCINONIDE], for which the AC50 is 0.003 µM on Progesterone receptor and greater than 30 µM in experiment [1].

Turning to `C[C@]12CCC(=O)C=C1CC[C@@H]1[C@@H]2[C@@H](O)C[C@@]2(C)[C@H]1CC[C@]2(O)C(=O)COC(=O)CCC(=O)O` [HYDROCORTISONE HEMISUCCINATE ANHYDROUS], the AC50 (on Progesterone receptor; in experiment [1]) was greater than 30 µM throughout.

Turning to `C#C[C@]1(O)CC[C@H]2[C@@H]3CCC4=C(CCC(=O)C4)[C@H]3CC[C@@]21C` [NORETHYNODREL], in experiment [1], the AC50 is greater than 30 µM.

Regarding `CN(C)c1cc(CNCC(C)(C)C)c(O)c2c1C[C@H]1C[C@H]3[C@H](N(C)C)C(O)=C(C(N)=O)C(=O)[C@@]3(O)C(O)=C1C2=O` [OMADACYCLINE], the AC50 on Histamine H3 receptor is 24 µM; in experiment [2] it was greater than 30 µM; in experiment [3] it was greater than 30 µM; on D(1A) dopamine receptor, greater than 30 µM; at Adenosine receptor A3 it was 25 µM; at Progesterone receptor, greater than 30 µM. In addition, the AC50 in experiment [4] is 24.3 µM; in experiment [5], greater than 30 µM; in experiment [6], 29 µM.

In turn, `CC(C)(C)C(=O)NCCCC(=O)O` [PIVAGABINE] showed an AC50 in [1] greater than 30 µM.

In the case of `CNC(=O)c1cc(Oc2ccc(NC(=O)Nc3ccc(Cl)c(C(F)(F)F)c3)c(F)c2)ccn1` [REGORAFENIB], the AC50 was greater than 30 µM in experiment [2]; greater than 30 µM on D(1A) dopamine receptor; 2.51 µM on Adenosine receptor A3; greater than 3 µM at Progesterone receptor; greater than 30 µM in [4]; greater than 30 µM in experiment [5]. The same molecule returned an AC50 in experiment [6] greater than 30 µM.

On to `CC(C)N(CCCCOCC(=O)NS(C)(=O)=O)c1cnc(-c2ccccc2)c(-c2ccccc2)n1` [SELEXIPAG], for which the AC50 at Histamine H3 receptor was greater than 30 µM; in [2] it was greater than 30 µM; in experiment [3], greater than 30 µM; at D(1A) dopamine receptor, greater than 30 µM; at Adenosine receptor A3 it was 7.89 µM; in [4], greater than 30 µM. In addition, the AC50 in experiment [5] and in experiment [6] was greater than 30 µM in each case.

For the molecule `CN1CCN(CCCN2c3ccccc3Sc3ccc(S(=O)(=O)N(C)C)cc32)CC1` [THIOPROPERAZINE], the AC50 in experiment [3] is 6.14 µM; on D(1A) dopamine receptor it was greater than 30 µM; at Progesterone receptor it was greater than 30 µM; in [4], 12 µM; in experiment [5] it was greater than 30 µM; in experiment [6], 12 µM.

Consider `CC1(C)O[C@@H]2[C@@H](CO[C@@]3(COS(N)(=O)=O)OC(C)(C)O[C@@H]23)O1` [TOPIRAMATE], for which the AC50 at Histamine H3 receptor was greater than 10 µM; in [2], greater than 10 µM; in experiment [3], greater than 30 µM; on D(1A) dopamine receptor, greater than 10 µM; on Adenosine receptor A3, greater than 30 µM; at Progesterone receptor it was greater than 30 µM. Further, the AC50 in experiment [4], in experiment [5] and in experiment [6] was greater than 10 µM in each case.

As for `Cc1cc(CC(=O)O)n(C)c1C(=O)c1ccc(Cl)cc1` [ZOMEPIRAC], the AC50 (at Histamine H3 receptor; in experiment [2]; in experiment [3]; on D(1A) dopamine receptor; at Adenosine receptor A3; in experiment [4]) was greater than 30 µM each time. The concentration at half-maximal activity (AC50) in [5] and in experiment [6] was greater than 30 µM throughout.
